13 compounds from patent US5486597A, “Tetrapeptide derivatives and analogues” (James Black Foundation Limited, priority 1990, dated 1996) can be followed below.

Non-standard residues stand in square brackets, D forms with d. Residues, ends and D or L forms follow the SMILES beside them. *: point of attachment. 2Nal = N[C@@H](Cc1ccc2ccccc2c1)C(=O)O; Boc = CC(C)(C)OC(=O)*

Assay type in all cases: cell-based
In assay [1] the target is T1, gastrin receptor (Mus musculus, UniProt P56481).
T1 construct: assayed for gastrin activity using the mouse stomach assay; from tissue; host or cells: isolated mouse stomach
T1 sequence (P56481 1-453): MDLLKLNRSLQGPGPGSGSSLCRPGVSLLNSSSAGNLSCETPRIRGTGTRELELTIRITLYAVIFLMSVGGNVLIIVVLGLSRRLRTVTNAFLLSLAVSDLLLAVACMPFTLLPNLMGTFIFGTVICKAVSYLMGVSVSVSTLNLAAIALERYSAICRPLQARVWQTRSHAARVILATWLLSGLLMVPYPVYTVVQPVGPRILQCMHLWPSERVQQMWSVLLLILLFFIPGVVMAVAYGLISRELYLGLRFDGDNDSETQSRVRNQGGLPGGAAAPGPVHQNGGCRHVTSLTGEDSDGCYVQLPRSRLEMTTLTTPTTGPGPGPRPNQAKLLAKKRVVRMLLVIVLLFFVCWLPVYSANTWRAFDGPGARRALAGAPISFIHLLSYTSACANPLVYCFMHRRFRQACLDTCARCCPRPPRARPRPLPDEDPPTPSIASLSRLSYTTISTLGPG
The experiment in a line: mouse stomach assay for gastrin activity (isolated stomach, acid secretion). The settings on record: for Kb / pKB mouse stomach: isolated mouse stomach assay, gastrin antagonism, standard errors less than 5%; for Kb: read-out: pKB mouse stomach (converted); for Acid seretion at 10^-5 M test compound, relative to pentagastrin (%): mouse stomach, NS = not significant. The protocol: The compounds were assayed for gastrin activity using the mouse stomach assay as described by Black, J. W. and Shankley, N. P., Br. J. Pharmacol., 86, 571-579, (1985), and also in the guinea-pig fundus assay, as follows: […]

The target in assay [2] is T2, gastrin receptor (Cavia porcellus, UniProt H0VZC5).
T2 construct: Strips of muscle (approximately 2.5 cm by 1 cm) are removed from the proximal area of the stomach; from tissue; host or cells: guinea-pig proximal stomach (fundus) muscle strips
T2 sequence (H0VZC5 1-426): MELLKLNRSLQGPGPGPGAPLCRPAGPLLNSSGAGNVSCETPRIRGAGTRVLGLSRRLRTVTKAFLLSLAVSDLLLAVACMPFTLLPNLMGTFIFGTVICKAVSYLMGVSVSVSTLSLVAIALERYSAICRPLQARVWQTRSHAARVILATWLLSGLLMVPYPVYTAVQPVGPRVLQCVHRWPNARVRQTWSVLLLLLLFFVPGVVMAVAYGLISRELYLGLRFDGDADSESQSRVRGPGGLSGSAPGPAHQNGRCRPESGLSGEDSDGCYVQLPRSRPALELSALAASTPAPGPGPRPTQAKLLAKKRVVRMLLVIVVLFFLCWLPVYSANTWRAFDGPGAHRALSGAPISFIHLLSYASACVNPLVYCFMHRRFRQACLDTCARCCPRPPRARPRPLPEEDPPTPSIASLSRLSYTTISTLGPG
As to the kind of experiment: guinea-pig fundus assay for gastrin activity (stomach muscle strips). The settings on record: 10^-8 M devazepide present, 60 minute equilibration, agonist e.g. pentagastrin, standard errors less than 5%. The procedure: The compounds were assayed for gastrin activity using the mouse stomach assay as described by Black, J. W. and Shankley, N. P., Br. J. Pharmacol., 86, 571-579, (1985), and also in the guinea-pig fundus assay, as follows:
The stomach is removed from a male Dunkin-Hartley guinea-pig (250-500 g), and Krebs solution is injected through a hypodermic needle under the top stomach muscle layer. The composition (mM) of the Krebs solution is as follows: Na^+ 143, K^+ 5.9, Ca^2+ 2.5, Mg^2+ 1.2, Cl^- 128, H2 PO4^- 2.2, HCO3^- 24.9, SO4^2- 1.2, dextrose 10. Strips of muscle (approximately 2.5 cm by 1 cm) are removed from the proximal area of the stomach (one from each side) and tied with cotton thread to isotonic transducers under an initial loading tension of 0.35 g.
The preparation is immersed in 20 mls of Krebs solution containing 10^-8 M devazepide (25 μl 2×10^-3 M devazepide/100% DMF solution in 5 dm^3 Krebs) and gassed with 95% O2 /5% CO2. The function of the devazepide is to block possible effects at CCK receptors present in the tissue.
The preparation is washed twice over a 60 minute period then 10 mM KCl is added. At 90 minutes, test compounds (ie. potential antagonists) are added and a further 60 minute equilibration period allowed. After this time, cumulative agonist (e.g. pentagastrin) dose-response curves are constructed.

The target of assay [3] is T3, cholecystokinin receptors (Cavia porcellus, UniProt Q63931).
T3 construct: Isolated, strip preparations were prepared from gall-bladders removed from male Dunkin-Hartley guinea-pigs; from tissue; host or cells: guinea-pig gall-bladder strips
T3 sequence (Q63931 1-430): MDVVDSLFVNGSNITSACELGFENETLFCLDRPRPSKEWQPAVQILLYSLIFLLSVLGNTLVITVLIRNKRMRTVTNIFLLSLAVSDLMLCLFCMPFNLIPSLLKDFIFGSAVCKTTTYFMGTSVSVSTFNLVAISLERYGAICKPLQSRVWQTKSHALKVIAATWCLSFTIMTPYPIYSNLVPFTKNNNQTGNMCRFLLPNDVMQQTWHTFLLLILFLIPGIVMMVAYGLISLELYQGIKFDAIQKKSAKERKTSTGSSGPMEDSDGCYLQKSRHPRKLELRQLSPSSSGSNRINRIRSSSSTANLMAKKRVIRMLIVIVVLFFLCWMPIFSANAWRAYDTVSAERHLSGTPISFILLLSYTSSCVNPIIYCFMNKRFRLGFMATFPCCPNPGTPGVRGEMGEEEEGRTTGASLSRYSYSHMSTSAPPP
The experiment in a line: CCK-antagonist activity in isolated guinea-pig gall-bladder strip preparations. The settings on record: guinea-pig gall-bladder strips; CCK-8 as agonist; test compound incubated for 60 minutes; standard errors less than 5%. Summed up: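 Male Dunkin-Hartley guinea-pig gall-bladder strips under 1 g isometric tension in Krebs (0.5 mM Ca²⁺), 37° C, 95% O2/5% CO2, stabilised 90 min. Cumulative CCK-8 concentration-effect curves without and with test compound (60 min preincubation); antagonism expressed as […] by modified competitive analysis.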

Consider `COc1ccc2[nH]cc(CC(NC(=O)OC(C)(C)C)C(=O)N[C@@H](Cc3ccc4ccccc4c3)C(=O)N[C@@H](CC(=O)O)C(=O)N[C@@H](Cc3ccccc3)C(N)=O)c2c1` (mixture of isomers) [Example 19, N-t-Butyloxycarbonyl-5-methoxy-D,L-tryptophyl-L-3-(2-naphthyl)alanyl-L-aspartyl-L-phenylalaninamide], for which the Kb at gastrin receptor [1] was 5010 nM; on gastrin receptor [2], 1580 nM; in assay [3] it was 501 nM. For the same compound, the “Acid seretion at 10^-5 M test compound, relative to pentagastrin (%)” value (shortened to “Acid seretion … relative to pentagastrin (%)”) on gastrin receptor [1] came to 80%.

One may read the pKB as the KB on a negative log10 scale, so that one unit is a factor of ten. The low end stands for a high KB, the high end for a low KB. In the case of `CC(C)(C)OC(=O)N[C@@H](Cc1c[nH]c2ccccc12)C(=O)N[C@@H](Cc1ccc2ccccc2c1)C(=O)N[C@@H](CC(=O)O)C(=O)N[C@@H]1CCC[C@H]1c1ccccc1` (single isomer, unassigned; diastereomer 1) [Example 31, N-t-Butyloxycarbonyl-L-tryptophyl-L-3-(2-naphthyl)alanyl-L-aspartyl-trans-2-phenylcyclopentylamide (diastereomer 1)], the pKB mouse stomach at gastrin receptor [1] was 5.0. In addition, the “Acid seretion … relative to pentagastrin (%)” value on gastrin receptor [1] is 40%. Besides, the results for the negative logarithm of the KB (pKB) (at gastrin receptor [2]; in assay [3]) were 6.1 and 6.5, respectively.

The compound `CC(C)(C)OC(=O)N[C@@H](Cc1c[nH]c2ccccc12)C(=O)N[C@@H](Cc1ccc2ccccc2c1)C(=O)N[C@@H](CC(=O)O)C(=O)N[C@@H]1CCC[C@@H]1c1ccccc1` (single isomer, unassigned; diastereomer 1) [Example 33, N-t-Butyloxycarbonyl-L-tryptophyl-L-3-(2-naphthyl)alanyl-L-aspartyl-cis-2-phenylcyclopentylamide (diastereomer 1)] yielded a pKB mouse stomach at gastrin receptor [1] of 5.2. Moreover, the pKB on gastrin receptor [2] was 6.2; in assay [3] it was 7.0.

With `CC(C)(C)OC(=O)N[C@@H](Cc1c[nH]c2ccccc12)C(=O)N[C@@H](Cc1ccc2ccccc2c1)C(=O)N[C@@H](CC(=O)O)C(=O)N[C@@H]1CCC[C@@H]1c1ccccc1` (single isomer, unassigned; diastereomer 2) [Example 34, N-t-Butyloxycarbonyl-L-tryptophyl-L-3-(2-naphthyl)alanyl-L-aspartyl-cis-2-phenylcyclopentylamide (diastereomer 2)], on gastrin receptor [1], the pKB mouse stomach stood at 6.5 and the “Acid seretion … relative to pentagastrin (%)” value was determined as 40%. On gastrin receptor [2], this compound yielded a negative-log KB (pKB) of 5.8. This compound also returned a pKB in assay [3] of 6.9.

Turning to `CC(C)(C)OC(=O)N[C@@H](Cc1c[nH]c2ccccc12)C(=O)N[C@@H](Cc1ccc2ccccc2c1)C(=O)N[C@@H](CC(=O)O)C(=O)N[C@@H](Cc1ccccc1)C(N)=O` [Example 1, N-t-Butyloxycarbonyl-L-tryptophyl-L-3-(2-naphthyl)alanyl-L-aspartyl-L-phenylalaninamide] (Boc-W[2Nal]DF-NH2), the values for the Kb (at gastrin receptor [1]; at gastrin receptor [2]; in assay [3]) were 631 nM, 3160 nM and 5010 nM, respectively. In addition, the “Acid seretion … relative to pentagastrin (%)” value on gastrin receptor [1] was found to be 65%.

Turning to `CN(C)C(=O)[C@H](Cc1ccccc1)NC(=O)[C@H](CC(=O)O)NC(=O)[C@H](Cc1ccc2ccccc2c1)NC(=O)[C@H](Cc1c[nH]c2ccccc12)NC(=O)OC(C)(C)C` [Example 6, N-t-Butyloxycarbonyl-L-tryptophyl-L-3-(2-naphthyl)alanyl-L-aspartyl-L-phenylalanyl-(N,Ndimethyl)amide] (Boc-W[2Nal]DF-NMe2), at gastrin receptor [1], the pKB mouse stomach is reported as 5.6 and the “Acid seretion … relative to pentagastrin (%)” value was 22%. For the same compound, the pKB at gastrin receptor [2] was determined as 5.6.

In turn, `COc1ccc(C[C@H](NC(=O)[C@H](CC(=O)O)NC(=O)[C@H](Cc2ccc3ccccc3c2)NC(=O)[C@H](Cc2c[nH]c3ccccc23)NC(=O)OC(C)(C)C)C(N)=O)cc1` [Example 7, N-t-Butyloxycarbonyl-L-tryptophyl-L-3-(2-naphthyl)alanyl-L-aspartyl-L-(4-methoxyphenylalanin)amide] (Boc-W[2Nal]DY(Me)-NH2) showed a pKB mouse stomach at gastrin receptor [1] of 5.7. The pKB at gastrin receptor [2] stood at 5.3; in assay [3], 5.8.

Regarding `CC(C)(C)OC(=O)N[C@@H](Cc1c[nH]c2ccccc12)C(=O)N[C@@H](Cc1ccc2ccccc2c1)C(=O)N[C@@H](CC(=O)O)C(=O)NCCc1ccc(Cl)cc1` [Example 8, N-t-Butyloxycarbonyl-L-tryptophyl-L-3-(2-naphthyl)alanyl-L-aspartyl-(4-chlorophenethyl)amide], on gastrin receptor [1], the pKB mouse stomach was determined as 5.9 and the “Acid seretion … relative to pentagastrin (%)” value is recorded as 28%. For the same compound, the pKB on gastrin receptor [2] was found to be 5.0.

`COc1ccc(CCNC(=O)[C@H](CC(=O)O)NC(=O)[C@H](Cc2ccc3ccccc3c2)NC(=O)[C@H](Cc2c[nH]c3ccccc23)NC(=O)OC(C)(C)C)cc1` [Example 10, N-t-Butyloxycarbonyl-L-tryptophyl-L-3-(2-naphthyl)alanyl-L-aspartyl-(4-methoxy)phenethylamide]: the pKB mouse stomach on gastrin receptor [1] was found to be 6.0. Moreover, the results for the pKB (at gastrin receptor [2]; in assay [3]) were 5.9 and 7.2, respectively.

As for “N-t-Butyloxycarbonyl-L-tryptophyl-L-3-(2-naphthyl)alanyl-L-aspartyl-4-hydroxyphenethylamide [Example 38]”, the pKB is 5.9 at gastrin receptor [2] and 7.1 in assay [3].

“N-t-Butyloxycarbonyl-L-tryptophyl-L-3-(2-naphthyl)alanyl-L-aspartyl-L-3-cyclohexylalaninamide [Example 36]”: the pKB is 5.4 at gastrin receptor [2] and 6.3 in assay [3].

Regarding “N-t-Butyloxycarbonyl-L-tryptophyl-L-3-(2-naphthyl)alanyl-L-aspartyl-trans- 2-phenylcyclopropylamide [Example 29]”, the pKB on gastrin receptor [2] was found to be 6.0; in assay [3] it was 5.9.

“N-t-Butyloxycarbonyl-L-tryptophyl-L-3-(2-naphthyl)alanyl-L-aspartyl-α-2-phenethylester [Example 63]”: the figures for the pKB (on gastrin receptor [2]; in assay [3]) were 5.9 and 7.0, respectively.
